# Test results as given in patent US8378117B2 (priority 2005, dated 2013).
# Columns and labels:
# [1] = test system: Male CD-1 mice; assay: Postoperative inflammatory ileus, microscopic myeloperoxidase histological examination; assay type: in vivo; conditions: Surgical Manipulation, 24 hr post-laparotomy, mean ± SE
# Protocol: Male CD-1 mice were anesthetized by inhaled isoflurane and prepared for surgery. The abdomen was shaved of hair and treated with antiseptic solution. The animal was then covered with a surgical drape, leaving the abdomen exposed. A mid-line laparotomy was performed, and the entire small intestine was exteriorized onto the sterile drape. Using two moistened, sterile, cotton-tipped applicators, the small intestine was then gently compressed along its length from the ligament of Treitz to the ileo-cecal junction. The small intestine was then returned to the abdominal cavity and the incision closed by two layers of sutures.
# Age-matched mice were randomly assigned to groups (6 animals per group) and injected intraperitoneally (i.p.) with “vehicle” (a mixture of 5% ethanol/5% Tween80/90% of 5% dextran in water w/v) containing various doses of a test compound 1 hr prior to laparotomy. The second group was injected intraperitoneally with vehicle. The third group was administered intragastrically (1 mg/kg) a mixture (1 mg/mL) of dexamethasone in 20% hydroxypropyl methyl dextran in water, once per day for two days prior to surgery and 5 hrs post-laparotomy. The fourth group received no intervention and served as naïve controls.
# Microscopic histological examination was performed on harvested tissues 24 hr post-laparotomy. […] Hanker-Yates reagent (Polysciences Inc.) forms an insoluble, blue-black polymer in the presence of hydrogen peroxide and peroxidase enzyme activity. Segments of mid small bowel were collected from the centrifuge tubes described in the previous section. Whole mounts of the muscle layer were prepared by opening the tube of bowel along the mesenteric border and pinning the tissue flat in a Sylgard™ lined Petri dish with the mucosal surface facing upward. The tissue was stretched to 1.5 times its length and 2.5 times its width, and the mucosa removed by fine dissection. The remaining muscularis whole mounts were then fixed with 100% ethanol for 45 min, washed 3 times with PBS, and incubated for 20 min in PBS containing 0.1% hydrogen peroxide and 1 mg/ml Hanker-Yates reagent (Polysciences, Inc). The reagent is polymerized in the presence of hydrogen peroxide and peroxidase activity to form a blue-black deposit. Following a second wash with PBS, the whole mounts were mounted on glass slides, cover-slipped, and viewed on an optical microscope. Myeloperoxidase containing leukocytes were counted in 6 to 8 adjacent 200× optical fields, and the mean cell counts were calculated and recorded.
# The presence of myeloperoxidase (MPO) positive immune cells in the intestinal muscularis is rare in normal animals.
# [2] = test system: Male CD-1 mice; assay: Oil of mustard induced colitis model; assay type: in vivo; conditions: Therapeutic Regimen, 5 mg/kg oral; 5 mg/kg
# Excerpt: In the distal colon, the oil of mustard colitis model is characterized by a discontinuous pattern of mucosal epithelial damage, submucosal edema, infiltration of inflammatory cells (including macrophages, neutrophils and lymphocytes) into the mucosa and submucosa, increased wet weight of the colon, shrinkage of the colon length, diarrhea and apparent inflammation (see, Kimball E. S., Palmer J. M., D'Andrea M. R., Homby P. J. and Wade P. R., Acute colitis induction by oil of mustard results in later development of an IBS-like accelerated upper GI transit in mice, Am. J Physiol. Gastrointest. Liver Physiol., 2005, 288: G 1266-1273).
# Male CD-1 mice (Charles River Laboratories, Kingston, N.C.) (9-11 weeks old) and fresh oil of mustard (OM) (allyl isothiocyanate, 98% purity, Sigma-Aldrich St. Louis, Mo.) were used.
# The mice (9 per treatment group) were briefly anesthetized with ketamine/xylasine (Sigma, St. Louis, Mo.) and a solution of 0.5% OM in 30% ethanol (50 μL) was administered intracolonically (to a depth of 4 cm) via syringe (equipped with a ball-tipped 22 G needle).
# A test compound was orally administered one day prior to colitis induction for assessing a prophylactic regimen or one day post-induction for assessing a therapeutic regimen. A test compound was orally administered daily thereafter. Two days after OM administration, the last test compound dose was administered.
# Three days after OM administration, the animals were sacrificed. The colons were resected, examined for signs of inflammation, weighed after removing fecal contents and the length from the aboral end of the cecum to the anus was measured. The fecal contents were examined for signs of diarrhea. The distal colon between the 1st and the 4th centimeter was removed and placed in 10% neutral buffered formalin for histological analysis.
# The macroscopic observations of colon inflammation (a measure of colon damage), colon weight and length and stool consistency and appearance were assigned a score and used to evaluate colitis severity.
# The four observation scores for each colon were combined, whereby a combined score of 0 represents a normal colon and a combined score of 15 represents a maximally affected colon. Statistical analyses were performed in Graphpad Prism 4.0 using ANOVA.
# Histological analyses of tissues consisted of staining paraffin-embedded tissue sections with hematoxylin-eosin dye. The tissues were examined using light microscopy by an investigator who was blinded to the sample groups.
# The microscopic observations of epithelial damage, cellular infiltration and damage or alteration of smooth muscle architecture (a measure of muscle damage) were assigned a score and used to evaluate colitis severity.
# The scores for each colon were combined, whereby a combined score of 0 represents a normal colon and a combined score of 9 represents a maximally affected colon. Statistical analyses were performed in Graphpad Prism 4.0 using ANOVA.
# The Macroscopic Score and Microscopic Score results for each treatment group in the prophylactic and therapeutic regimens were each combined into a mean score and expressed as % inhibition of colitis (% Inh). Test (#) represents the number of experiments at each dose level.
SMILES,MPO-Positive Cells (Per 200× Optical Field) ([1]; dose 10 mg/kg),MPO-Positive Cells (Per 200× Optical Field) ([1]; dose 30 mg/kg),MPO-Positive Cells (Per 200× Optical Field) ([1]; dose 1 mg/kg),MPO-Positive Cells (Per 200× Optical Field) ([1]; dose 3 mg/kg),"% Inh (Macro), % inhibition of colitis, macroscopic score [2]"
"C[C@H](NS(=O)(=O)/C=C/c1n[nH]c2c1CCCCC2Cc1cccc(F)c1)c1ccccc1 (single isomer, unassigned) [Cpd 232, (2E)-2-[(8R*)-8-(3-fluoro-benzyl)-1,4,5,6,7,8-hexahydro-cycloheptapyrazol-3-yl]-ethenesulfonic acid [(1S)-1-phenyl-ethyl]-amide]",127.6 ± 25.7,60.2 ± 20.8,–,–,–
"C[C@H](NS(=O)(=O)/C=C/c1n[nH]c2c1CCCC/C2=C\c1ccc(Cl)cc1)c1ccccc1 [Cpd 237, (2E,8E)-2-[8-(4-chloro-benzylidene)-1,4,5,6,7,8-hexahydro-cycloheptapyrazol-3-yl]-ethenesulfonic acid [(1S)-1-phenyl-ethyl]-amide]",77.7 ± 25.7,60.3 ± 20.9,57.8 ± 17.0,41.3 ± 9.4,–
"O=C(N[C@H](CO)c1ccccc1)c1n[nH]c2c1CCCCC2Cc1cccc(Cl)c1 (single isomer, unassigned) [Cpd 231, (8S*)-8-(3-chloro-benzyl)-1,4,5,6,7,8-hexahydro-cycloheptapyrazole-3-carboxylic acid [(1S)-2-hydroxy-1-phenyl-ethyl]-amide]",–,–,–,–,−19 ± 20.7%
"O=C(N[C@H](CO)c1ccccc1)c1n[nH]c2c1CCCCC2Cc1cccc(Cl)c1 (single isomer, unassigned) [Cpd 230, (8R*)-8-(3-chloro-benzyl)-1,4,5,6,7,8-hexahydro-cycloheptapyrazole-3-carboxylic acid [(1S)-2-hydroxy-1-phenyl-ethyl]-amide]",–,–,–,–,25.9 ± 24.7%
